Measurements from US5017618A, “Labile derivatives of ketone analogs of 3-substituted-1-alkylamino-2-propanols and their use as beta-adrenergic blockers” (priority 1989, dated 1991).
Each block holds one compound with its values, some of them ahead of it.

Experiments:
[1] = Spontaneous isomerization of HCl salts of oximes (I'); format: physicochemical; conditions: HCl salts in solution
Text: Spontaneous isomerization of HCl salts of compounds of formula (I') was also observed in solution; it was not observed in oxalates or bases of (I'). […] Acid-catalyzed isomerization was in most cases found to result in formation of the opposite isomers in solutions and in suspensions, respectively. In suspension, clearly the less soluble isomer is forming.

[2] = In vivo distribution-metabolism in ocular tissues of rabbits; conditions: rabbit, topical or ocular, 1 %
Description: (§1) Adult male New Zealand albino rabbits weighing 2.5-3.5 kg were used. Standard doses of 100 μl of 1% solution of the drugs in saline solution were administered topically to both eyes of each rabbit. After appropriate time intervals (30, 60 and 120 minutes), the animals were sacrificed. Aqueous humor was obtained by making a single puncture at the limbus using a 25 g×5/8" needle attached to 1 cm^3 syringe. Then the cornea and the iris-ciliary body were isolated. The tissues were pooled and homogenized using a Tekmar SDT tissuemizer in ice cold perchloric acid (0.05M) which contained 0.05% sodium metabisulfite as antioxidant. Samples were then rehomogenized in CH3 OH to prepare 10% homogenates, transferred to micro-filters and centrifuged for 20 minutes at 10000 r/minute to precipitate proteins. Aqueous humor was analyzed as such without any further dilution. Aliquots of 5-20 μl of the 10% tissue homogenate samples were analyzed by HPLC.

[3] = test system: ocular tissues of rabbits; assay: as above; conditions: for Concentration of propranolol: after topical propranolol.HCl 1a 1%
Description: as §1

rabbit eyes = assay: Local action of the drugs on the eyes (irritation, congestion, redness, lacrimation); format: in vivo, rabbit (male New Zealand albino); conditions: for ocular irritation: 1% and 2.5%, both eyes, rabbits
[4] = in vivo
Description: A group of seven adult male Sprague-Dawley rats weighing 150-250 g was used. […] After 1, 3, 5, 20, 40 and 60 minutes, one mL of blood was withdrawn from the jugular vein and dropped immediately into a tared tube containing 1 mL of ice-cold acetonitrile. The tubes were vigorously shaken, centrifuged, decanted and analyzed for propranolol 1a and propranolone oxime 5a by HPLC. Quantitation was done by using a calibration curve obtained by addition of known amounts of propranolol oxime HCl 6a to blood obtained from a control rat pretreated with saline solution.
A high pressure liquid chromatography (HPLC) method was developed for the assay of the β-blockers and their ketoxime analogs in biological fluids. […] An ASI reverse phase chrompack C18 column, operated at ambient temperature, was used for all separation. The mobile phase used for separation of propranolol 1a and propranolone oxime 5a consisted of water (90 mL), 1-heptanesulfonic acid (1g), 0.1M acetic acid (10 mL), 0.1M triethanolamine (100 mL) and methanol (799 mL).

[5] = test system: Intraocular Pressure (IOP) of Rabbits; assay: Effect on the Intraocular Pressure (IOP) of Rabbits; format: in vivo, rabbit (male New Zealand albino)
Description: The animals were kept in individual cages with free access to food and water. Intraocular pressure was measured using a Digilab model 30R pneumatonometer. The pneumatonometer readings were checked at least twice a day using the Digilab calibration verifier. All measurements were obtained from unrestrained, unanesthetized rabbits. One drop of 0.5% propacaine (Ophthetic-Allergen Pharmaceuticals, Inc.) diluted 1:2 with saline was instilled in each eye immediately prior to IOP measurement. Drugs were administered as 1 or 2.5% solution in buffer pH 7.4 or in saline in both eyes of a group of at least four rabbits. Another group of at least three rabbits served as control and was administered the carrier only. […] Values are given as means ± standard error (S.E.) of the mean. The significance of the change was determined using the student's t-test.

[6] = test system: rabbit cornea (intraocular enzymes); format: in vivo; conditions: rabbit, in vivo
Description: The tissue was homogenized in an alkaline buffer (pH 10.0) to give 10% (w/v) homogenate, and extracted twice with equal volumes of methylene chloride/diethyl ether mixture (1:4, v/v) by shaking for 15 minutes. The organic layer was separated, then re-extractedwith an equal volume of aqueous 0.1M hydrochloric acid solution. The aqueous phase was made alkaline (pH 10.0) and extracted with methylene chloride/diethyl ether, the organic layer was transferred to a deactivated glass vial, and the solvent was evaporated at reduced pressure under nitrogen stream. The residue was dissolved in 0.01M hydrochloric acid solution and analyzed by high-performance liquid chromatography (HPLC). A Supelcosil LC-8-DB analytical column (7.5 cm×4.6 mm i.d., 3 μm particle size) and mobile phase (1.5 mL/min flow rate) consisting of 30% acetonitrile in an aqueous buffer solution of 0.02M monobasic potassium phosphate (adjusted to pH 3.0 with phosphoric acid) and 0.01 (v/v) triethylamine. UV detection at 280 nm was applied. […] The same experiment was carried out by administering 1-(isopropylamino)-3-(2-allylphenoxy)-2-propanone oxime hydrochloride salt in 2% (w/v) aqueous solution. […]

[7] = test system: isoprenaline-induced tachycardia; assay: Effect on isoprenaline-induced tachycardia in rats (β-adrenergic antagonist activity); format: in vivo, rat (male Sprague-Dawley); conditions: rats; 6 mg/kg i.v.; isoprenaline 50 μg/kg s.c.; FIG. 1
Description: (§2) Groups of seven male Sprague-Dawley rats weighing 150-250 g were used. Each animal was anesthetized with sodium pentobarbital (50 mg/kg) and the jugular vein was cannulated with PE50 tubing. This cannula was subcutaneously threaded around the neck and exteriorized dorsally. The cannula was filled with heparin solution ([…]) and sealed with a solid 22-gauge stylet. Animals were housed in individual stainless steel cages and at least 24 hours were allowed for recovery from the surgery. Food and water were provided ad libitum. On the day of the experiment, the heart rate of each rat was monitored with a plethsmograph and the data recorded on a Physioscribe II recorder. One hour was allowed as an equilibration period before any drugs were administered. Drugs were dissolved in normal saline as 0.3% solution and were administered intravenously at a dose of 6 mg/kg. The resting heart rate was then recorded after 1, 3, 5, 10 and 15 minutes following i.v. injection. […] A control group of seven animals was intravenously administered saline solution and was treated exactly in the same manner as the drug-treated groups. The significance of the difference between the effect of saline solution and the drugs under investigation on the resting heart rate and on isoprenaline tachycardia was analyzed using the student's "t" test. Values are given as mean ±S.E. of the mean. […] (.) carteolol HCl, 1c; .circle. propranolone ketoxime HCl, 6a; (.gradient.) timolone ketoxime oxalate, 6b; (Δ) N-isopropyl timolone ketoxime HCl, 6d; carteolone oxime HCl, 6c; and (---) saline solution. […] Drugs were administered to groups of 5 rats using a stomach tube and the heart rate was recorded for 1 hour. […] A control group of 5 rats was treated exactly in the same manner after the oral administration of the appropriate volume of saline solution.

[8] = test system: IOP of rabbits, treated eye; assay: Unilateral administration, IOP of rabbits; format: in vivo, rabbit; conditions: 0.5% and 1.0% solution in saline, one eye
Description: The animals were kept in individual cages with free access to food and water. Intraocular pressure was measured using a Digilab model 30R pneumatonometer. The pneumatonometer readings were checked at least twice a day using the Digilab calibration verifier. All measurements were obtained from unrestrained, unanesthetized rabbits. One drop of 0.5% propacaine (Ophthetic-Allergen Pharmaceuticals, Inc.) diluted 1:2 with saline was instilled in each eye immediately prior to IOP measurement. Drugs were administered as 1 or 2.5% solution in buffer pH 7.4 or in saline in both eyes of a group of at least four rabbits. Another group of at least three rabbits served as control and was administered the carrier only. IOP was recorded after 30 and 60 minutes and then after 2, 3, 4, 6 and 8 hours following the drug or carrier administration. Values are given as means ± standard error (S.E.) of the mean. The significance of the change was determined using the student's t-test.
The unilateral administration of propranolol oxime hydrochloride 6a was subsequently studied at two different concentrations, 0.5% and 1.0%. Drugs were administered as 0.5% or 1.0% solution in saline in one of the eyes of each animal in a group of five rabbits. The untreated eye of each rabbit served as a control and received vehicle only. IOP was recorded as described above. […]

[9] = test system: resting heart rate of rats; assay: Effect on resting heart rate in rats; format: in vivo, rat (male Sprague-Dawley); conditions: 6 mg/kg i.v. (Example 6)
Description: as §2

rabbit iris-ciliary body = assay: Reduction of ketone in the iris-ciliary body; format: in vivo; conditions: 0.5% hydrochloride salt (w/v); 1.0 hour after instillation
Description: It was then shown that reduction of 1-(isopropylamino)-3-(1-naphthyloxy)-2-propanone takes place in the iris-ciliary body. The compound was administered to the rabbit eye in propylene glycol/ethanol/pH=5.9 ophthalmic buffer (25:25:50 mixture, v/v) solution (concentration 0.5% hydrochloride salt, w/v). The iris-ciliary body was removed, extracted and analyzed 1.0 hour after the instillation of the compound, as described in the preceding paragraph.

[10] = aqueous humor, Concentration of propranolol
[11] = aqueous humor, Tissue concentration
[12] = cornea, Concentration of propranolol
[13] = iris-ciliary body, Tissue concentration

- spontaneous isomerization [1]: no isomerization of Il was observed
SMILES: Cc1ccc(Cl)c(OCC(CNC(C)(C)C)=NO)c1 [Il]

SMILES: CC(C)NCC(O)COc1cccc2ccccc12 (stereo not shown) [Propranolol 1a, 1-(isopropylamino)-3-(1-naphthyloxy)-2-propanol]
- concentration at 0.5 h [2, 10]: 1280 ± 190 ng/g
- concentration at 1 h [2, 10]: 260 ± 80 ng/g
- concentration at 0.5 h [2, 11]: 40 ± 20 ng/g
- concentration at 1 h [2, 11]: 710 ± 110 ng/g
- concentration at 0.5 h [2, 12]: 47100 ± 5570 ng/g
- concentration at 1 h [2, 12]: 14500 ± 2970 ng/g
- concentration at 0.5 h ([2]; cornea, Tissue concentration): 1680 ± 750 ng/g
- concentration at 1 h ([2]; cornea, Tissue concentration): 1140 ± 290 ng/g
- concentration at 2 h ([2]; cornea, Tissue concentration): 1140 ± 220 ng/g
- concentration at 0.5 h ([2]; iris-ciliary body, Concentration of propranolol): 8050 ± 1470 ng/g
- concentration at 0.5 h [2, 13]: 2110 ± 290 ng/g
- concentration at 1 h [2, 13]: 1790 ± 200 ng/g
- concentration at 2 h [2, 13]: 430 ± 110 ng/g
- Concentration of propranolol ([3]; aqueous humor, 120 min.): 0.00 ± 0.00 mcg/g tissue
- Concentration of propranolol ([3]; cornea, 120 min.): 0.00 ± 0.00 mcg/g tissue
- Concentration of propranolol ([3]; iris-ciliary body, 60 min.): 0.00 ± 0.00 mcg/g tissue
- Concentration of propranolol ([3]; iris-ciliary body, 120 min.): 0.00 ± 0.00 mcg/g tissue
- Tissue concentration ([3]; after topical propranolone oxime HCl 6a 1%, aqueous humor, 120 min.): 0.00 ± 0.00 mcg/g tissue
- detection of propranolol in eye compartments ([3]; rabbit, in vivo): could be detected in measurable concentrations in the different eye compartments for the first two hours
- detection of propranolol in eye tissues ([3]; rabbit, in vivo): could not be detected in any of the tested eye tissues
- detection of propranolol in iris-ciliary body ([3]; rabbit, in vivo): completely disappeared from the iris-ciliary body
- ocular irritation (rabbit eyes): ocular irritation which always accompanied propranolol administration at both dose levels
- detection of propranolol in rat's blood [4]: not detected in rat's blood

SMILES: CC(C)NCC(COc1cccc2ccccc12)=NO.Cl [Propranolone oxime HCl 6a, 1-(Isopropylamino)-3-(1-naphthyloxy)-2-propanone oxime hydrochloride]
- irritant action, unilateral administration (rabbit eyes; 0.5% and 1.0% solution in saline, one eye): No irritant action was noted
- ocular irritation (rabbit eyes): completely devoid of the ocular irritation
- % change after treatment (IOP) ([5]; 1% solution, 30 min.): -3.23%
- IOP, treated ([5]; 1% solution, 30 min.): 26.9 ± 0.58 mm/Hg
- % change after treatment (IOP) ([5]; 1% solution, 60 min.): -11.51%
- IOP, treated ([5]; 1% solution, 60 min.): 24.0 ± 0.60 mm/Hg
- % change after treatment (IOP) ([5]; 1% solution, 2 hrs.): -15.82%
- IOP, treated ([5]; 1% solution, 2 hrs.): 23.4 ± 0.51 mm/Hg
- % change after treatment (IOP) ([5]; 1% solution, 3 hrs.): -16.18%
- IOP, treated ([5]; 1% solution, 3 hrs.): 23.3 ± 0.35 mm/Hg
- % change after treatment (IOP) ([5]; 1% solution, 4 hrs.): -20.14%
- IOP, treated ([5]; 1% solution, 4 hrs.): 22.2 ± 0.42 mm/Hg
- % change after treatment (IOP) ([5]; 1% solution, 6 hrs.): -7.08%
- IOP, treated ([5]; 1% solution, 6 hrs.): 25.8 ± 0.56 mm/Hg
- % change after treatment (IOP) ([5]; 1% solution, 8 hrs.): +0.50%
- IOP, treated ([5]; 1% solution, 8 hrs.): 27.9 ± 0.62 mm/Hg
- % change after treatment (IOP) ([5]; 1% solution, time zero): 0.00%
- IOP, treated ([5]; 1% solution, time zero): 27.8 ± 0.62 mm/Hg
- % change after treatment (IOP) ([5]; 2.5% solution, 30 min.): +1.92%
- IOP, treated ([5]; 2.5% solution, 30 min.): 26.5 ± 0.63 mm/Hg
- % change after treatment (IOP) ([5]; 2.5% solution, 60 min.): -10.00%
- IOP, treated ([5]; 2.5% solution, 60 min.): 23.4 ± 0.55 mm/Hg
- % change after treatment (IOP) ([5]; 2.5% solution, 2 hrs.): -13.08%
- IOP, treated ([5]; 2.5% solution, 2 hrs.): 22.6 ± 0.43 mm/Hg
- % change after treatment (IOP) ([5]; 2.5% solution, 3 hrs.): -18.46%
- IOP, treated ([5]; 2.5% solution, 3 hrs.): 21.2 ± 0.28 mm/Hg
- IOP, treated ([5]; 2.5% solution, 4 hrs.): 20.4 ± 0.34 mm/Hg
- % change after treatment (IOP) ([5]; 2.5% solution, 6 hrs.): -9.23%
- IOP, treated ([5]; 2.5% solution, 6 hrs.): 23.6 ± 0.48 mm/Hg
- % change after treatment (IOP) ([5]; 2.5% solution, 8 hrs.): -0.77%
- IOP, treated ([5]; 2.5% solution, 8 hrs.): 25.8 ± 0.65 mm/Hg
- % change after treatment (IOP) ([5]; 2.5% solution, time zero): 0.00%
- IOP, treated ([5]; 2.5% solution, time zero): 26.0 ± 0.48 mm/Hg
- ocular hypotensive activity compared with parent β-blocker ([5]; same dose levels, rabbits): much more pronounced and prolonged than that of propranolol itself
- ocular hypotensive activity (in words) ([5]; topical, rabbits, dose levels used): has shown the highest activity at both tested concentration levels, 1 and 2.5%
- metabolites identified in cornea [6]: Peaks were identified as the E- and Z-isomers of the ketoxime administered, as the corresponding ketone 1-(isopropylamino)-3-(naphthyloxy)-2-propanone, and as the β-adrenergic antagonist 1-(isopropylamino)-3-(naphthyloxy)-2-propanol(propranol)
- β-adrenergic antagonist activity against isoprenaline-tachycardia [7]: most effective
- decrease in IOP, unilateral administration [8]: Significant decrease in the IOP was observed at both levels, only in the treated eye
- activity on resting heart rate (negative chronotropic action) [9]: highest activity

SMILES: CC(C)NCC(=O)COc1cccc2ccccc12 [1-(isopropylamino)-3-(1-naphthyloxy)-2-propanone]
- enzymatic reduction product in iris-ciliary body (rabbit iris-ciliary body): The enzymatic reduction product, 1-(isopropylamino)-3-(1-naphthyloxy)-2-propanol, i.e. propranolol, was clearly identified
